{
  "source": "patent US20180348208A1",
  "about": "“Systems And Methods For Determining The Risk Of Severe Allergic Reaction To Allergen, And The Immunological Protection Afforded By Vaccines” (FlowMetric Life Sciences, priority 2017, published 2018)",
  "key": {"[1]": {"tested_on": "leukocytes and CD3+ lymphocytes", "assay": "Detection of leukocyte and lymphocyte activation markers involved in allergic response by flow cytometry", "assay_type": "cell-based, Human", "procedure": "Human whole blood was obtained from a normal control individual and from an individual with a severe allergy to Amoxicillin. The blood was diluted 1:5 in RPMI media, then stimulated with either 50 μM Amoxicillin for 20 minutes to 1 hour at 37° C. and 5% CO2. In parallel, blood samples were treated with a buffer as a stimulation control, or with 50 μg/mL of the potent polymorphonuclear leukocyte (PMN) chemotactic factor fMLP (N-Formylmethionyl-leucyl-phenylalanine).\nFollowing the stimulation period, blood samples were stained with fluorescently-labeled antibodies to leukocyte activation markers CD294, CD203a or lymphocyte activation markers CD71 and CD69 with the use of CD3 to identify CD3+ lymphocytes. Each of the samples were then incubated, protected from light, for a minimum of 30 minutes. Following incubation with the labeled antibodies, the samples were washed with BSA Stain Buffer. In parallel, samples were separately incubated with isotype control antibodies.\nFollowing washing, red blood cells were lysed with 1 mL of 1× Pharm Lyse™ by incubation with this reagent for 15 minutes. Samples were centrifuged, and washed again with BSA Stain Buffer.\nSamples and controls were then run through a FACS CANTO flow cytometer. The flow cytometer was calibrated, and compensation was performed according to standard requirements and procedures. Cells were suspended at a density of 1,000,000 cells per mL in a tube, and run through the flow cytometer for analysis. One hundred thousand events were collected per analysis.\nLive cells were gating based on their low staining with FVS450. Lymphocytes and leukocytes were identified by their forward (FSC) and side (SSC) scatter profiles, and gated accordingly. CD+ lymphocytes were then further analyzed according to activation markers CD69 and CD71."}, "[2]": {"tested_on": "T cells", "assay": "T cell activation detection by flow cytometry in stimulated human whole blood", "assay_type": "cell-based", "procedure": "Human whole blood can be obtained and diluted 1:5 in RPMI media and stimulated with 0, 20, 40, 60, 80, and 100 μg/mL (of blood) of phytohemagglutinin (PHA) for about 20 hours at 37° C. and 5% CO2. In parallel, blood samples can be treated with a buffer (no PHA) as a stimulation control. Following the stimulation period, blood samples can be stained with fluorescently-labeled antibodies to T cell markers, including CD4, CD25, CD69, and CD71. Fluorescently-labeled (FITC, APC, PE, PerCP-Cy5, and APC-Cy7) antibodies can be mixed with 100 μIL of PHA-stimulated blood samples or with unstimulated blood control samples in parallel, and each of the samples were can then be incubated, protected from light, for a minimum of 30 minutes. Following incubation with the labeled antibodies, the samples can be washed with BSA Stain Buffer. In parallel, samples can be separately incubated with isotype control antibodies. Following washing, red blood cells can be lysed with 1 mL of 1× Pharm Lyse™ by incubation with this reagent for 15 minutes. Samples can be centrifuged, and washed again with BSA Stain Buffer. All samples can be fixed and permeabilized with eBiosciences Fix and Perm solutions according to the manufacturer's instructions. FoxP3 can be added to the fixed/permeabilized samples, and the samples can be incubated for a minimum of 30 minutes. Samples can be washed with BSA Stain Buffer, and 1 μL of Violet Live/Dead is added to the samples and incubated, protected from light, for a minimum of 15 minutes. Samples and controls can be run through a FACSAria III flow cytometer. The flow cytometer can be calibrated, and compensation can be performed according to standard requirements and procedures. Cells can be suspended at a density of 1,000,000 cells per mL in a tube, and run through the flow cytometer for analysis. One hundred thousand events can be collected per analysis. T cells can be identified by their forward (FSC) and side (SSC) scatter profiles, and gated accordingly. T cells can further be analyzed according to the T cell marker profiles (Fox3, CD4, CD25, cD69, and CD71)."}, "[3]": {"settings": "blood from allergic donor (highly sensitive to Amoxicillin), 50 μM, 20 minutes to 1 hour"}, "[4]": {"settings": "blood from non-allergic donor, 50 μM, 20 minutes to 1 hour"}, "[5]": {"settings": "fMLP-stimulated blood samples, 50 μg/mL"}, "[6]": {"settings": "human whole blood diluted 1:5 in RPMI, PHA stimulation about 20 hours at 37° C."}, "[7]": {"settings": "increasing amounts of PHA, 0 to 100 micrograms over 20 microgram increments"}},
  "data": [
    {"molecule": "CC1(C)S[C@@H]2[C@H](NC(=O)[C@H](N)c3ccc(O)cc3)C(=O)N2[C@H]1C(=O)O", "note": "[Amoxicillin]", "values": [
      {"measurement": "expression of CD69 and CD71 on CD3+ lymphocytes", "setting": "[1]; [3]", "value": "increased expression"},
      {"measurement": "expression of CD294 and CD203a on leukocytes", "setting": "[1]; [3]", "value": "increased expression"},
      {"measurement": "CD71 or CD69 on lymphocytes", "setting": "[1]; [4]", "value": "did not show an increase"},
      {"measurement": "CD294 and CD203a on leukocytes", "setting": "[1]; [4]", "value": "did not show an increase"}
    ]},
    {"molecule": "CSCC[C@H](NC=O)C(=O)N[C@@H](CC(C)C)C(=O)N[C@@H](Cc1ccccc1)C(=O)O", "note": "[fMLP, N-Formylmethionyl-leucyl-phenylalanine]", "values": [
      {"measurement": "CD294 and CD203a expression on leukocytes", "setting": "[1]; [5]", "value": "substantial increase"},
      {"measurement": "expression of CD71 and CD69 on lymphocytes", "setting": "[1]; [5]", "value": "significant increase"}
    ]},
    {"molecule": "Phytohemagglutinin [PHA]", "values": [
      {"measurement": "stimulation of normal whole blood CD71, CD69, FoxP3 and CD25+ cells", "setting": "[2]; 20-100 μg/mL PHA", "value": "stimulated"},
      {"measurement": "CD4 expression on the T cells", "setting": "[2]; [6]", "value": "substantial increase"},
      {"measurement": "expression of CD25, CD69, CD71, and FoxP3 on the T cells", "setting": "[2]; [6]", "value": "significant increase"},
      {"measurement": "level of CD69 expression on CD4+ cells", "setting": "[2]; increasing amounts of PHA, 0 to 100 micrograms", "value": "enhancement"},
      {"measurement": "level of CD71 expression on CD4+ cells", "setting": "[2]; [7]", "value": "enhancement"},
      {"measurement": "level of FoxP3 expression on CD4+ cells", "setting": "[2]; [7]", "value": "enhancement"}
    ]}
  ]
}
